Measured values from patent publication US20220153745A1, “DISUBSTITUTED BENZOTHIENYL-PYRROLOTRIAZINES AND THEIR USE AS FGFR KINASE INHIBITORS” (Bayer Intellectual Property GmbH, priority 2011, published 2022).
Where a name gives a salt, the structure may show the parent alone.

Columns and labels:
mTOR = target: T1, mTOR (Homo sapiens, UniProt P42345); test: mTOR kinase assay (TR-FRET, for comparative purposes); assay type: biochemical; conditions: for inhibition at 1 µM: read-out: mTOR % inhibition @ 1 μM, mean inhibition at 1 μM test compound, 40 μM ATP
T1 construct: human mTOR amino acids from 1360 to 2549; purchased Invitrogen 4753; host or cells: insect cells
T1 sequence (P42345 1360-2549): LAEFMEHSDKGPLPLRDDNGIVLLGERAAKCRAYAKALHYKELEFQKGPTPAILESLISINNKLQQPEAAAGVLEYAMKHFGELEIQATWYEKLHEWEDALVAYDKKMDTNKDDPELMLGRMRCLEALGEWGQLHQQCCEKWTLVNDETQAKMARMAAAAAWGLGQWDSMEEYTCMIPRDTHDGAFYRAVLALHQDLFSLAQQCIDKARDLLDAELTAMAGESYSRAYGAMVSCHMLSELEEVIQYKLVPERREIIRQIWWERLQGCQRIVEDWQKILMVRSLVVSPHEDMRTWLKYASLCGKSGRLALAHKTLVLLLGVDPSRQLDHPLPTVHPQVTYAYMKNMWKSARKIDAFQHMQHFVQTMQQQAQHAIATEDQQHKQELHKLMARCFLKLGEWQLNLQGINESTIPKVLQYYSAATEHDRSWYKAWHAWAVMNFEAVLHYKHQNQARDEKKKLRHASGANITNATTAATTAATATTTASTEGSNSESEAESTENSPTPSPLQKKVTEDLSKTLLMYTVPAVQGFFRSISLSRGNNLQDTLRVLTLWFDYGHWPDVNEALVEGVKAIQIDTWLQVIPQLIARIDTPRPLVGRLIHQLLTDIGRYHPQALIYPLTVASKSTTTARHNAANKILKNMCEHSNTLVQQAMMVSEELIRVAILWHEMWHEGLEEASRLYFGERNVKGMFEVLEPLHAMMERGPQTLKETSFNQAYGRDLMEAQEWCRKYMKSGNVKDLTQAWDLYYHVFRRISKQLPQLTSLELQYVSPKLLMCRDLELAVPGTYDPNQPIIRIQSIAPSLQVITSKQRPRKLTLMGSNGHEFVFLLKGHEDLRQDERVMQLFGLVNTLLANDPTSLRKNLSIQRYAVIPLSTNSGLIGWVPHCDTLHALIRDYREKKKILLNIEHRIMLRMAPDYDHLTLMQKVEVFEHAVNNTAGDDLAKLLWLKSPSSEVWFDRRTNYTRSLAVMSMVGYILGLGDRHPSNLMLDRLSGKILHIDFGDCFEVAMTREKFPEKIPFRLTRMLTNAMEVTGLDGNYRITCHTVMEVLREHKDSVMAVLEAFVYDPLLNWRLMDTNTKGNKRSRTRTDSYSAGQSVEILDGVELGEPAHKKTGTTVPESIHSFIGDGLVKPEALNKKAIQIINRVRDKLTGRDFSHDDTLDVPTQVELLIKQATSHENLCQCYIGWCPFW

[1] = tested on: Human umbilical vein endothelial cells (HUVEC); test: Inhibition of hFGF-2 mediated HUVEC proliferation; assay type: cell-based; conditions: 72 h

`COC(=O)c1c(-c2cc3cc(C)cc(OC)c3s2)c2c(N)ncnn2c1C(=O)N1CCNCC1` [Example 60, Methyl 4-amino-5-(7-methoxy-5-methyl-1-benzothiophen-2-yl)-7-(piperazin-1-ylcarbonyl)pyrrolo[2,1-f][1,2,4]triazine-6-carboxylate bis(formiate)] showed an inhibition at 1 µM (mTOR) of 11.1% and an IC50 [1] of 250 nM.

`COc1cc(C)cc2cc(-c3c(COC4CCC4)c(CN4CCNCC4)n4ncnc(N)c34)sc12` [Example 26, 6-[(Cyclobutyloxy)methyl]-5-(7-methoxy-5-methyl-1-benzothiophen-2-yl)-7-(piperazin-1-ylmethyl)pyrrolo[2,1-f][1,2,4]triazin-4-amine] showed an inhibition at 1 µM (mTOR) of 6.8% and an IC50 [1] of 56.7 nM.

In the case of `COc1cc(C)cc2cc(-c3c(CO)c(C)n4ncnc(N)c34)sc12` [Example 75, [4-Amino-5-(7-methoxy-5-methyl-1-benzothiophen-2-yl)-7-methylpyrrolo[2,1-f][1,2,4]triazin-6-yl]-methanol], the inhibition at 1 µM (mTOR) is reported as 10.2% and the IC50 [1] is reported as 1.5 nM.

With `COc1cc(C)cc2cc(-c3c(CO)c(Cl)n4ncnc(N)c34)sc12` [Example 79, [4-Amino-7-chloro-5-(7-methoxy-5-methyl-1-benzothiophen-2-yl)pyrrolo[2,1-f][1,2,4]triazin-6-yl]-methanol] the inhibition at 1 µM (mTOR) was 14.7% and the IC50 [1] was 3.5 nM.

In the case of `COc1cc(C)cc2cc(-c3c(CNCC(C)O)c(CN4CCOCC4)n4ncnc(N)c34)sc12` (racemic) [Example 53, rac-1-({[4-Amino-5-(7-methoxy-5-methyl-1-benzothiophen-2-yl)-7-(morpholin-4-ylmethyl)pyrrolo[2,1-f][1,2,4]triazin-6-yl]methyl}amino)propan-2-ol], the inhibition at 1 µM (mTOR) is reported as 3.3% and the IC50 [1] is reported as 3.3 nM.

Molecule `COc1cc(C)cc2cc(-c3c(CN4CCNC(=O)C4)c(C(C)(C)O)n4ncnc(N)c34)sc12` [Example 74, 4-{[4-Amino-7-(2-hydroxypropan-2-yl)-5-(7-methoxy-5-methyl-1-benzothiophen-2-yl)pyrrolo[2,1-f][1,2,4]triazin-6-yl]methyl}piperazin-2-one] has an inhibition at 1 µM (mTOR) of 18.6% and an IC50 [1] of 0.2 nM.

For `COc1cc(C)cc2cc(-c3c(CNC(C)=O)c(CN4CCNC(=O)C4)n4ncnc(N)c34)sc12` [Example 67, N-({4-Amino-5-(7-methoxy-5-methyl-1-benzothiophen-2-yl)-7-[(3-oxopiperazin-1-yl)methyl]-pyrrolo[2,1-f][1,2,4]triazin-6-yl}methyl)acetamide], the inhibition at 1 µM (mTOR) was 8.4% and the IC50 [1] was 12.1 nM.

In the case of `COc1cc(C)cc2cc(-c3c(CNCC(C)(C)O)c(C)n4ncnc(N)c34)sc12` [Example 77, 1-({[4-Amino-5-(7-methoxy-5-methyl-1-benzothiophen-2-yl)-7-methylpyrrolo[2,1-f][1,2,4]triazin-6-yl]methyl}amino)-2-methylpropan-2-ol formiate], the “mTOR % inhibition @ 1 μM” value (mTOR; mean inhibition at 1 μM test compound, 40 μM ATP) is reported as 0.7% and the IC50 [1] is reported as 3.2 nM.

`COc1cc(C)cc2cc(-c3c(CN4CCNC(=O)C4)c(CN4CCN(C(C)=O)CC4)n4ncnc(N)c34)sc12` [Example 59, 4-({7-[(4-Acetylpiperazin-1-yl)methyl]-4-amino-5-(7-methoxy-5-methyl-1-benzothiophen-2-yl)pyrrolo[2,1-f][1,2,4]triazin-6-yl}methyl)piperazin-2-one] showed an inhibition at 1 µM (mTOR) of 0.8% and an IC50 [1] of 51.1 nM.

For `COc1cc(C)cc2cc(-c3c(COCCO)c(CN4CCNC(=O)C4)n4ncnc(N)c34)sc12` [Example 21, 4-({4-Amino-6-[(2-hydroxyethoxy)methyl]-5-(7-methoxy-5-methyl-1-benzothiophen-2-yl)pyrrolo[2,1-f][1,2,4]triazin-7-yl}methyl)piperazin-2-one formiate], the inhibition at 1 µM (mTOR) was 5% and the IC50 [1] was 3.7 nM.

In the case of `COc1cc(C)cc2cc(-c3c(CNCC(C)(C)O)c(CN4CCN(C(C)=O)CC4)n4ncnc(N)c34)sc12` [Example 57, 1-(4-{[4-Amino-6-{[(2-hydroxy-2-methylpropyl)amino]methyl}-5-(7-methoxy-5-methyl-1-benzothiophen-2-yl)pyrrolo[2,1-f][1,2,4]triazin-7-yl]methyl}piperazin-1-yl)ethanone], the inhibition at 1 µM (mTOR) is reported as 2% and the IC50 [1] is reported as 3.2 nM.

`COc1cc(C)cc2cc(-c3c(C)c(CN4CCNCC4)n4ncnc(N)c34)sc12` [Example 84, 5-(7-Methoxy-5-methyl-1-benzothiophen-2-yl)-6-methyl-7-(piperazin-1-ylmethyl)pyrrolo[2,1-f][1,2,4]triazin-4-amine formiate] was tested, and the inhibition at 1 µM (mTOR) was 9.1% and the IC50 [1] was 46.6 nM.

`COc1cc(C)cc2cc(-c3c(CN4CCNC(=O)C4)c(CN4CCOCC4)n4ncnc(N)c34)sc12` [Example 52, 4-{[4-Amino-5-(7-methoxy-5-methyl-1-benzothiophen-2-yl)-7-(morpholin-4-ylmethyl)pyrrolo[2,1-f][1,2,4]triazin-6-yl]methyl}piperazin-2-one] was tested, and the inhibition at 1 µM (mTOR) was 4.2% and the IC50 [1] was 4 nM.

`COc1cc(C)cc2cc(-c3c(CN[C@@H]4CCNC4=O)c(CN4CCN(C(C)=O)CC4)n4ncnc(N)c34)sc12` [Example 56, (3R)-3-[({7-[(4-Acetylpiperazin-1-yl)methyl]-4-amino-5-(7-methoxy-5-methyl-1-benzothiophen-2-yl)pyrrolo[2,1-f][1,2,4]triazin-6-yl}methyl)amino]pyrrolidin-2-one] was tested, and the inhibition at 1 µM (mTOR) was 16.1% and the IC50 [1] was 18.1 nM.

`COc1cc(C)cc2cc(-c3c(CO)c(C#N)n4ncnc(N)c34)sc12` [Example 68, 4-Amino-6-(hydroxymethyl)-5-(7-methoxy-5-methyl-1-benzothiophen-2-yl)pyrrolo[2,1-f][1,2,4]-triazine-7-carbonitrile] gave an inhibition at 1 µM (mTOR) of 8% and an IC50 [1] of 14.4 nM.

Work on `COc1cc(C)cc2cc(-c3c(CN4CCNC(=O)C4)c(C)n4ncnc(N)c34)sc12` [Example 76, 4-{[4-Amino-5-(7-methoxy-5-methyl-1-benzothiophen-2-yl)-7-methylpyrrolo[2,1-f][1,2,4]triazin-6-yl]methyl}piperazin-2-one] yielded an inhibition at 1 µM (mTOR) of 8.5% and an IC50 [1] of 1.5 nM.

Molecule `COc1cc(C)cc2cc(-c3c(COC(C)C)c(CN4CCNCC4)n4ncnc(N)c34)sc12` [Example 27, 6-(Isopropoxymethyl)-5-(7-methoxy-5-methyl-1-benzothiophen-2-yl)-7-(piperazin-1-ylmethyl)pyrrolo[2,1-f][1,2,4]triazin-4-amine formiate] has an inhibition at 1 µM (mTOR) of 5.9%.

With `COc1cc(C)cc2cc(-c3c(CN4CCNC(=O)C4)c(C#N)n4ncnc(N)c34)sc12` [Example 71, 4-Amino-5-(7-methoxy-5-methyl-1-benzothiophen-2-yl)-6-[(3-oxopiperazin-1-yl)methyl]pyrrolo[2,1-f][1,2,4]triazine-7-carbonitrile] the inhibition at 1 µM (mTOR) was 0.1%.

`COc1cc(C)cc2cc(-c3c(CO)c(CN4CCNC(=O)C4)n4ncnc(N)c34)sc12` [Example 13, 4-{[4-Amino-6-(hydroxymethyl)-5-(7-methoxy-5-methyl-1-benzothiophen-2-yl)pyrrolo[2,1-f][1,2,4]-triazin-7-yl]methyl}piperazin-2-one] was tested, and the inhibition at 1 µM (mTOR) was 14.9% and the IC50 [1] was 17 nM.

`COCc1c(-c2cc3cccc(OC)c3s2)c2c(N)ncnn2c1CN1CCNC(=O)C1` [Example 88, 4-{[4-Amino-5-(7-methoxy-1-benzothiophen-2-yl)-6-(methoxymethyl)pyrrolo[2,1-f][1,2,4]triazin-7-yl]methyl}piperazin-2-one] gave an inhibition at 1 µM (mTOR) of 5.3%.

`COc1cc(C)cc2cc(-c3c(CN4CCNC(=O)C4)c(CN4CCN(C=O)CC4)n4ncnc(N)c34)sc12` [Example 58, 4-({4-Amino-5-(7-methoxy-5-methyl-1-benzothiophen-2-yl)-6-[(3-oxopiperazin-1-yl)methyl]pyrrolo[2,1-f][1,2,4]triazin-7-yl}methyl)piperazine-1-carbaldehyde formiate] gave an inhibition at 1 µM (mTOR) of 4%.

`CCCCOCc1c(-c2cc3cc(C)cc(OC)c3s2)c2c(N)ncnn2c1CN1CCNCC1` [Example 23, 6-(Butoxymethyl)-5-(7-methoxy-5-methyl-1-benzothiophen-2-yl)-7-(piperazin-1-ylmethyl)pyrrolo[2,1-f][1,2,4]triazin-4-amine formiate] showed an inhibition at 1 µM (mTOR) of 11.6%.

With `CCCOCc1c(-c2cc3cc(C)cc(OC)c3s2)c2c(N)ncnn2c1CN1CCNCC1` [Example 24, 5-(7-Methoxy-5-methyl-1-benzothiophen-2-yl)-7-(piperazin-1-ylmethyl)-6-(propoxymethyl)pyrrolo[2,1-f][1,2,4]triazin-4-amine bis(formiate)] the inhibition at 1 µM (mTOR) was 6.3%.

For `COc1cc(C)cc2cc(-c3c(COc4ccccc4)c(CN4CCNCC4)n4ncnc(N)c34)sc12` [Example 35, 5-(7-Methoxy-5-methyl-1-benzothiophen-2-yl)-6-(phenoxymethyl)-7-(piperazin-1-ylmethyl)pyrrolo[2,1-f][1,2,4]triazin-4-amine bis(formiate)], the inhibition at 1 µM (mTOR) was 1.4%.

With `COc1cc(C)cc2cc(-c3c(COCC(F)(F)F)c(CN4CCNCC4)n4ncnc(N)c34)sc12` [Example 29, 5-(7-Methoxy-5-methyl-1-benzothiophen-2-yl)-7-(piperazin-1-ylmethyl)-6-[(2,2,2-trifluoroethoxy)methyl]pyrrolo[2,1-f][1,2,4]triazin-4-amine formiate] the inhibition at 1 µM (mTOR) was 28.5%.

In the case of `CCOCc1c(-c2cc3cc(C)cc(OC)c3s2)c2c(N)ncnn2c1CN1CCS(=O)(=O)CC1` [Example 99], the inhibition at 1 µM (mTOR) is reported as 5.3%.

`COc1cc(C)cc2cc(-c3c(CN4CCCC(O)C4)c(CN4CCNCC4)n4ncnc(N)c34)sc12` (racemic) [Example 40, rac-1-{[4-Amino-5-(7-methoxy-5-methyl-1-benzothiophen-2-yl)-7-(piperazin-1-ylmethyl)pyrrolo[2,1-f][1,2,4]triazin-6-yl]methyl}piperidin-3-ol trihydrochloride] gave an inhibition at 1 µM (mTOR) of 0.1%.

With `COc1cc(C)cc2cc(-c3c(CO)c(CN4CCNCC4)n4ncnc(N)c34)sc12` [Example 12, [4-Amino-5-(7-methoxy-5-methyl-1-benzothiophen-2-yl)-7-(piperazin-1-ylmethyl)pyrrolo[2,1-f]-[1,2,4]triazin-6-yl]methanol bis(formiate)] the inhibition at 1 µM (mTOR) was 25.8%.
